In ChEMBL document CHEMBL5518164, “Membrane-permeable tenofovir-di- and monophosphate analogues” (Eur J Med Chem, 2024):
The source made the active and inactive calls. The rule behind the calls is not given here.

Columns and labels:
[1] = Half life of the compound in human CEM/0 cell extracts by RP18-HPLC analysis; format: ADME, CCRF-CEM
[2] = Drug metabolism in heparin-stabilized human plasma assessed as (R)-9-(2-(phosphonomethoxy)propyl)adenine formation by HPLC analysis; format: ADME, cell-free
[3] = Lipophilicity of the compound assessed as retention time by RP-HPLC analysis; format: physicochemical
[4] = target: T1, DNA polymerase alpha catalytic subunit (Homo sapiens) (UniProt P09884); experiment: Substrate activity at human DNA polymerase alpha assessed as n+1 band formation incubated for 60 mins in presence of primer/template mixture and dNTPs by primer extension assay based fluorescence analysis
T1 sequence (whole entry): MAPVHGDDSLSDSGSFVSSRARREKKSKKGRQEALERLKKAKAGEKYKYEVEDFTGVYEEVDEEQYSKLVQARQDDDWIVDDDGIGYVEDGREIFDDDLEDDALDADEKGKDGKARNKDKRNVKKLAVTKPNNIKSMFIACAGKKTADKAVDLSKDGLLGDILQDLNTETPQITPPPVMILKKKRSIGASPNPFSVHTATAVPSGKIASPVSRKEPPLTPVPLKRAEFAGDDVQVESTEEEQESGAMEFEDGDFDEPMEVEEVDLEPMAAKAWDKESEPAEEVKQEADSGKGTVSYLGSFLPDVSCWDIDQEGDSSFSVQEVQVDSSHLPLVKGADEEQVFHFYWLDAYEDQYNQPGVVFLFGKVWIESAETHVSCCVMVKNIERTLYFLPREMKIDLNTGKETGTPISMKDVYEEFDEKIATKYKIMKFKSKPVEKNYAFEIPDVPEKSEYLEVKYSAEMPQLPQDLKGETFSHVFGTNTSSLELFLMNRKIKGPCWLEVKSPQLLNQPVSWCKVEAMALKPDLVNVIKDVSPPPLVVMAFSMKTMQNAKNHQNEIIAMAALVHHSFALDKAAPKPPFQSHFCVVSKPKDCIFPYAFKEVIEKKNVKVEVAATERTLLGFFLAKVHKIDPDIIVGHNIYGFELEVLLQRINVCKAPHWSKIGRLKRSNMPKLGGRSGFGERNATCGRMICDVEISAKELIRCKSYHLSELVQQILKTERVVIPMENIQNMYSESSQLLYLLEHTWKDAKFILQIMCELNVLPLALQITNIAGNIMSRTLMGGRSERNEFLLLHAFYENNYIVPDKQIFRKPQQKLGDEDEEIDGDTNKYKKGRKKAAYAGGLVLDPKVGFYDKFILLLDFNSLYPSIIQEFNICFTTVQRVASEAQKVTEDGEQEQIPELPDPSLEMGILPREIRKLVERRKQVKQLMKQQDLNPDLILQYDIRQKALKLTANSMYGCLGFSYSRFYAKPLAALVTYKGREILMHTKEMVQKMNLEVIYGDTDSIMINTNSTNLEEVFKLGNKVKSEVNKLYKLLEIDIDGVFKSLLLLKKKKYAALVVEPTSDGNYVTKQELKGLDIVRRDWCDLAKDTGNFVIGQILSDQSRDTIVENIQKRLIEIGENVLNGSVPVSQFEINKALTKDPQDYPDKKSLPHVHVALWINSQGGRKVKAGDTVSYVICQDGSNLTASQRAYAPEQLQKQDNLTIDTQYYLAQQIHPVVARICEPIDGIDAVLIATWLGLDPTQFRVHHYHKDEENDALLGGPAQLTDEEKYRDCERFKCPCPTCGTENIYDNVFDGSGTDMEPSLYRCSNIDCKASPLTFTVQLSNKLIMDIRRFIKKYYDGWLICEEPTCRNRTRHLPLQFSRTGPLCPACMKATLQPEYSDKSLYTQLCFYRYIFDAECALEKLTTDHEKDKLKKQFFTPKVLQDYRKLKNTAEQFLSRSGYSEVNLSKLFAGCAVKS

[5] = target: DNA polymerase beta (Homo sapiens) (UniProt P06746); experiment: Substrate activity at human DNA polymerase beta assessed as n+1 band formation incubated for 120 mins in presence of primer/template mixture and dNTPs by primer extension assay based fluorescence analysis
[6] = target: T2, DNA polymerase subunit gamma-1 (Homo sapiens) (UniProt P54098); experiment: Substrate activity at human DNA polymerase gamma assessed as n+1 band formation incubated for 120 mins in presence of primer/template mixture and dNTPs by primer extension assay based fluorescence analysis
T2 sequence (whole entry): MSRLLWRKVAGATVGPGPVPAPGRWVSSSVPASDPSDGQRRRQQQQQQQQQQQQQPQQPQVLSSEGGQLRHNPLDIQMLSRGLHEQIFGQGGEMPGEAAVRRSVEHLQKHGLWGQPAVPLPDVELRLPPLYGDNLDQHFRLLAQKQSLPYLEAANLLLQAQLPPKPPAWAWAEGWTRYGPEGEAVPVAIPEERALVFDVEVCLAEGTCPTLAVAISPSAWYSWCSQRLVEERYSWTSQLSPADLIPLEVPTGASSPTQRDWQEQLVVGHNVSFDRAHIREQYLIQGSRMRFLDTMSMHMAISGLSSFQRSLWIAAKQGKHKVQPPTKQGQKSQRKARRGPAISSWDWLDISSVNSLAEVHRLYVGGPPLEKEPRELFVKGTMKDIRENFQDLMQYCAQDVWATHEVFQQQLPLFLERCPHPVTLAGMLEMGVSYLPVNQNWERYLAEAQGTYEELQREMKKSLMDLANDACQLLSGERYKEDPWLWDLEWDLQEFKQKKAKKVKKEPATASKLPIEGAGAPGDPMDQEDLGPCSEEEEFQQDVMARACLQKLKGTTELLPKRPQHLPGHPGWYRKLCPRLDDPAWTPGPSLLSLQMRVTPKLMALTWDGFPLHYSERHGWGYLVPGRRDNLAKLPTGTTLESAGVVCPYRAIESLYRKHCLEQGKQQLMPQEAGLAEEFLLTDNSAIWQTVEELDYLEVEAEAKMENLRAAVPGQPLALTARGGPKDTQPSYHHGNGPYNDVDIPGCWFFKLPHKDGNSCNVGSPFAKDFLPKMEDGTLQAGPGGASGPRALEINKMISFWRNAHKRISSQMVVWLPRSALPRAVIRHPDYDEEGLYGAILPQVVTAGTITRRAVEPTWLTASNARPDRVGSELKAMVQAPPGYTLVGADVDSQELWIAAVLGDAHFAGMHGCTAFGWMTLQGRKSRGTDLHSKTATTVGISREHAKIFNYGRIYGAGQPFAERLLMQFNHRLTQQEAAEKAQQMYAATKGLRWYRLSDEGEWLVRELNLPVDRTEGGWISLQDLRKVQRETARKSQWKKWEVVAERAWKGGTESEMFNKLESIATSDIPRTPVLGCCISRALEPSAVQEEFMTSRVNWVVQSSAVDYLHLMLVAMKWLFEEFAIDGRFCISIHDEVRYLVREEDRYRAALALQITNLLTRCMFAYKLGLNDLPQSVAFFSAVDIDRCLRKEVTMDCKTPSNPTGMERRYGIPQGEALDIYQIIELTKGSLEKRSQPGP

[7] = Selectivity index, ratio of CC50 for cytotoxicity against human CEM cells to EC50 for antiviral activity against HIV-2 ROD infected in thymidine kinase deficient human CEM cells; format: toxicity, cell-based; conditions: read-out: Ratio CC50/EC50

Row | SMILES | half-life [1] | Drug metabolism [2] | Retention_time [3] | Activity [4] | Activity [5] | Activity [6] | selectivity ratio [7]
1 | CCCCCCCCCCCCCCCCCCP(=O)(OCCCC)OP(=O)(O)OP(=O)(O)CO[C@H](C)Cn1cnc2c(N)ncnc21 (stereo partly specified) | > 8 h | Metabolite_Detected | 15.2 min | inactive | inactive | inactive | 1350
2 | CCCCCCCCCCCCCCCCCCOP(=O)(OCCCC)OP(=O)(O)OP(=O)(O)CO[C@H](C)Cn1cnc2c(N)ncnc21 (stereo partly specified) | > 20 h | Metabolite_Detected | 15.5 min | inactive | inactive | inactive | 3690
3 | CCCCCCCCCCCCCCCCCCP(=O)(OCCCC)OP(=O)(O)CO[C@H](C)Cn1cnc2c(N)ncnc21 (stereo partly specified) | 5.1 h | Metabolite_Detected | 18.1 min | inactive | inactive | inactive | 14000
